Source: article PMC9482650, “Quantitative fragmentomics allow affinity mapping of interactomes” (Nature Communications, 2022)
Ends that are not written are not given here.

Tests used:
Assay in all cases: Holdup assay
Assay type in all cases: binding
[1] = target: LNX2_2 PDZ (Homo sapiens, UniProt Q8N448)
[2] = target: GOPC PDZ (Homo sapiens, UniProt Q9HD26)
[3] = target: RADIL PDZ (Homo sapiens, UniProt Q96JH8)
[4] = target: MPDZ_10 PDZ (Homo sapiens, UniProt O75970)
[5] = target: GRIP2_2 PDZ (Homo sapiens, UniProt Q9C0E4)
Sequence of GRIP2_2 PDZ (Q9C0E4 148-234 limits assumed): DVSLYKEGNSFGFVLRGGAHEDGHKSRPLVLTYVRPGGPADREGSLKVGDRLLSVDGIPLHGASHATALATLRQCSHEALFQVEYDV

[6] = target: MAGI1_4 PDZ (Homo sapiens, UniProt Q96QZ7)
Sequence of MAGI1_4 PDZ (Q96QZ7 813-895 limits assumed): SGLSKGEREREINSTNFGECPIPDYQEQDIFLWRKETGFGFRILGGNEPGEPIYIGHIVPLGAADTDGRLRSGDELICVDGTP

[7] = target: MAGI2_6 PDZ (Homo sapiens, UniProt Q86UL8); conditions: composite holdup affinity; 0.00=below quantification threshold; read-out: COMP pKd (converted)
Sequence of MAGI2_6 PDZ (Q86UL8 1147-1229 limits assumed): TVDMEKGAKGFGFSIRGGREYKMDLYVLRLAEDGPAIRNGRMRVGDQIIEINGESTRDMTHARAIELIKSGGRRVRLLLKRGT

[8] = target: DLG5_2 PDZ (Homo sapiens, UniProt Q8TDM6); conditions: sheet PPI_convert; read-out: affinity to PDZ DLG5_2 (converted)
Sequence of DLG5_2 PDZ (Q8TDM6 705-796 limits assumed): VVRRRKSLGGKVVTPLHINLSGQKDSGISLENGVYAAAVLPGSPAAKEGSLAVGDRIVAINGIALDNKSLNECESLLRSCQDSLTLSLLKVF

[9] = target: DLG5_4 PDZ (Homo sapiens, UniProt Q8TDM6); conditions: sheet PPI_convert; read-out: affinity to PDZ DLG5_4 (converted)
Sequence of DLG5_4 PDZ (Q8TDM6 1501-1582 limits assumed): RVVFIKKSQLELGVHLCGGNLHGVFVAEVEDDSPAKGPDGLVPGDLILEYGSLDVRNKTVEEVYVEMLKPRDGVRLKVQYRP

[10] = target: IL16_2 PDZ (Homo sapiens, UniProt Q14005); conditions: sheet PPI_convert; read-out: affinity to PDZ IL16_2 (converted)
Sequence of IL16_2 PDZ (Q14005 355-440 limits assumed): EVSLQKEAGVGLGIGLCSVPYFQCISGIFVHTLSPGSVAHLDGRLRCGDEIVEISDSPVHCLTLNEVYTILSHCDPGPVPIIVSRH

[11] = target: MAGI1_3 PDZ (Homo sapiens, UniProt Q96QZ7); conditions: sheet PPI_convert; read-out: affinity to PDZ MAGI1_3 (converted)
Sequence of MAGI1_3 PDZ (Q96QZ7 643-721 limits assumed): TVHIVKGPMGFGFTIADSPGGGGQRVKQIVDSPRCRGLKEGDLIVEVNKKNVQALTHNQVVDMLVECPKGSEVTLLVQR

[12] = target: MAGI1_5 PDZ (Homo sapiens, UniProt Q96QZ7); conditions: sheet PPI_convert; read-out: affinity to PDZ MAGI1_5 (converted)
Sequence of MAGI1_5 PDZ (Q96QZ7 970-1066 limits assumed): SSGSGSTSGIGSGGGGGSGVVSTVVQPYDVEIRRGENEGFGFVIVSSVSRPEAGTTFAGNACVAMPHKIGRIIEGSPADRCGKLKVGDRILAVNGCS

[13] = target: MAGI1_6 PDZ (Homo sapiens, UniProt Q96QZ7); conditions: sheet PPI_convert; read-out: affinity to PDZ MAGI1_6 (converted)
Sequence of MAGI1_6 PDZ (Q96QZ7 1124-1206 limits assumed): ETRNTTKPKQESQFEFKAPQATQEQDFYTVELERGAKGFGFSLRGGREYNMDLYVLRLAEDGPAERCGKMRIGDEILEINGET

[14] = target: MAGI3_4 PDZ (Homo sapiens, UniProt Q5TCQ9); conditions: sheet PPI_convert; read-out: affinity to PDZ MAGI3_4 (converted)
Sequence of MAGI3_4 PDZ (Q5TCQ9 726-808 limits assumed): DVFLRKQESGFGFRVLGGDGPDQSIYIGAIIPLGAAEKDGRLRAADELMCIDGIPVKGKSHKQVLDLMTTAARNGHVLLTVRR

[15] = target: MAGI3_6 PDZ (Homo sapiens, UniProt Q5TCQ9); conditions: sheet PPI_convert; read-out: affinity to PDZ MAGI3_6 (converted)
Sequence of MAGI3_6 PDZ (Q5TCQ9 1021-1103 limits assumed): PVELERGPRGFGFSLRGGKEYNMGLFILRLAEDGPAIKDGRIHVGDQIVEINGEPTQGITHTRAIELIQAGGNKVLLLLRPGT

[16] = target: MAGIX PDZ (Homo sapiens, UniProt Q9H6Y5); conditions: sheet PPI_convert; read-out: affinity to PDZ MAGIX (converted)
Sequence of MAGIX PDZ (Q9H6Y5 125-209): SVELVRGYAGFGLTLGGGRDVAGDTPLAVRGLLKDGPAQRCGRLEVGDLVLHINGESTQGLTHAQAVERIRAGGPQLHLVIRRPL
Source text: Supplement 41467_2022_33018_MOESM4_ESM.xlsx, sheet "PPI_convert" | column: MAGIX

[17] = target: MLLT4 PDZ (Homo sapiens, UniProt P55196); conditions: sheet PPI_convert; read-out: affinity to PDZ MLLT4 (converted)
Sequence of MLLT4 PDZ (P55196 1007-1093 limits assumed): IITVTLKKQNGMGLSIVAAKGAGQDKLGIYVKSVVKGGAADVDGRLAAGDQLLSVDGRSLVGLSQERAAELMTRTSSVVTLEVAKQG
Source text: Supplement 41467_2022_33018_MOESM4_ESM.xlsx, sheet "PPI_convert" | column: MLLT4

[18] = target: MPDZ_13 PDZ (Homo sapiens, UniProt O75970); conditions: sheet PPI_convert; read-out: affinity to PDZ MPDZ_13 (converted)
Sequence of MPDZ_13 PDZ (O75970 1987-2070 limits assumed): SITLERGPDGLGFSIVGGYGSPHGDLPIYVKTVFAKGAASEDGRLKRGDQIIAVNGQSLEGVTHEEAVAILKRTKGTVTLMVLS

[19] = target: MPP3 PDZ (Homo sapiens, UniProt Q13368); conditions: sheet PPI_convert; read-out: affinity to PDZ MPP3 (converted)
Sequence of MPP3 PDZ (Q13368 137-212 limits assumed): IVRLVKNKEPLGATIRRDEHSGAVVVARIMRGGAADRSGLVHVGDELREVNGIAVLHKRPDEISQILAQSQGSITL

[20] = target: NHERF2_1 PDZ (Homo sapiens, UniProt Q15599); conditions: sheet PPI_convert; read-out: affinity to PDZ NHERF2_1 (converted)
Sequence of NHERF2_1 PDZ (Q15599 11-90 limits assumed): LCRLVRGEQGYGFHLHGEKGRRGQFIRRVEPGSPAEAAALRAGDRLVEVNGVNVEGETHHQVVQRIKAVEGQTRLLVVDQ

[21] = target: NHERF4_3 PDZ (Homo sapiens, UniProt Q86UT5); conditions: sheet PPI_convert; read-out: affinity to PDZ NHERF4_3 (converted)
Sequence of NHERF4_3 PDZ (Q86UT5 329-412 limits assumed): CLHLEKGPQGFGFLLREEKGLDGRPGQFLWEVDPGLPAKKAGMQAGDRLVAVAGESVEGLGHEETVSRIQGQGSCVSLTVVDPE

[22] = target: PARD3B_3 PDZ (Homo sapiens, UniProt Q8TEW8); conditions: sheet PPI_convert; read-out: affinity to PDZ PARD3B_3 (converted)
Sequence of PARD3B_3 PDZ (Q8TEW8 498-585 limits assumed): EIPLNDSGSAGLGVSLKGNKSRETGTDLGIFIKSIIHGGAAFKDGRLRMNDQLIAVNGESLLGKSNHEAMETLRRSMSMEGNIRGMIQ

[23] = target: PDZD2_5 PDZ (Homo sapiens, UniProt O15018); conditions: sheet PPI_convert; read-out: affinity to PDZ PDZD2_5 (converted)
Sequence of PDZD2_5 PDZ (O15018 2622-2706 limits assumed): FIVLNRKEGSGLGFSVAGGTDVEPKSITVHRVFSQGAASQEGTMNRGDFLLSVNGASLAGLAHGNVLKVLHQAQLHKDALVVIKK

[24] = target: PDZD4 PDZ (Homo sapiens, UniProt Q76G19); conditions: sheet PPI_convert; read-out: affinity to PDZ PDZD4 (converted)
Sequence of PDZD4 PDZ (Q76G19 130-214 limits assumed): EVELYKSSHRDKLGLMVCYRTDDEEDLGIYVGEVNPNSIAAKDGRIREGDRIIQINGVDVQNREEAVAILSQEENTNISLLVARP
Source text: Supplement 41467_2022_33018_MOESM4_ESM.xlsx, sheet "PPI_convert" | column: PDZD4

[25] = target: PDZRN3_2 PDZ (Homo sapiens, UniProt Q9UPQ7); conditions: sheet PPI_convert; read-out: affinity to PDZ PDZRN3_2 (converted)
Sequence of PDZRN3_2 PDZ (Q9UPQ7 419-503 limits assumed): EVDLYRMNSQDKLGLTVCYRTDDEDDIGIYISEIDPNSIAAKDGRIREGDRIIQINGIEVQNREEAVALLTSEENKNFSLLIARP

[26] = target: DFNB31_1 PDZ (Homo sapiens, UniProt Q9P202); conditions: composite holdup affinity; 0.00=below quantification threshold; read-out: COMP pKd (converted)
Sequence of DFNB31_1 PDZ (Q9P202 140-223 limits assumed): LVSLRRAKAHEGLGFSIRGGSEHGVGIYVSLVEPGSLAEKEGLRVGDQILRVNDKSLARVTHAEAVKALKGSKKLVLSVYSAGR

Sequence of RADIL PDZ (Q96JH8 976-1061 limits assumed): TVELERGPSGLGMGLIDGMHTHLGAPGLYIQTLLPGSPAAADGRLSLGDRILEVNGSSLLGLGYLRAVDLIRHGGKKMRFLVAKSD
Sequence of LNX2_2 PDZ (Q8N448 339-422 limits assumed): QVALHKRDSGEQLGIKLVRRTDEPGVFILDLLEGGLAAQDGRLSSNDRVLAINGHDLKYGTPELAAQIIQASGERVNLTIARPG
Sequence of MPDZ_10 PDZ (O75970 1629-1712 limits assumed): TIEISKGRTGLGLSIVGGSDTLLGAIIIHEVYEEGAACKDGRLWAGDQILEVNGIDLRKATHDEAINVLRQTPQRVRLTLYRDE

CC(C)C[C@H](NC(=O)[C@@H](N)CCCNC(=N)N)C(=O)N[C@@H](CCC(N)=O)C(=O)N[C@@H](CCCNC(=N)N)C(=O)N[C@@H](CCCNC(=N)N)C(=O)N[C@@H](CCCNC(=N)N)C(=O)N[C@@H](CCC(=O)O)C(=O)N[C@H](C(=O)N[C@@H](CCC(N)=O)C(=O)N[C@H](C(=O)O)C(C)C)[C@@H](C)O [HPV18-E6]
Kd [1]: 676 µM | Kd [2]: 661 µM | Kd [3]: 525 µM | Kd [4]: 275 µM | Kd [5]: 33.1 µM | Kd [6]: 52.5 µM

SKPTRRETEV [HPV35-E6]
Kd [7]: 324 µM | Kd [8]: 19.1 µM | Kd [9]: 219 µM | Kd [10]: 269 µM | Kd [11]: 81.3 µM | Kd [12]: 37.2 µM | Kd [13]: 219 µM | Kd [14]: 174 µM | Kd [15]: 155 µM | Kd [16]: 275 µM | Kd [17]: 162 µM | Kd [18]: 170 µM | Kd [19]: 200 µM | Kd [20]: 170 µM | Kd [21]: 166 µM | Kd [22]: 186 µM | Kd [23]: 170 µM | Kd [24]: 282 µM | Kd [25]: 269 µM

SRRPRTETQV [HPV31-E6]
Kd [26]: 282 µM
